Where two headings read alike, the source gives them in different places.
Assays:
[1] = system: pancreatic cancer cells (Capan-1); test: Drug combination with olaparib, Combination Index by Chou-Talalay method (CompuSyn); type: cell-based, human; conditions: CI<0.9 denotes synergism
Method: The experiment was conducted in triplicates.

[2] = system: Liv7k cell line (oral cancer); test: Drug repurposing screen: growth inhibition of oral cancer cell line under normoxia and hypoxia (nuclei count); type: cell-based; conditions: Homo sapiens; for inhibition at 10 µM: 72 h, read-out: Growth Inhibition (GI)
Method: HPV-negative cell line derived from a T3N2b primary tumor of the tongue. The patient received no chemo/radiotherapy prior to tumor excision. Generously gifted by Professor Richard Shaw (Head and Neck Cancer Consultant, Liverpool, UK). Cells are maintained in keratinocyte SFM (Life Technologies), supplemented with 2 mM L-glutamine, 0.2 ng/ml epidermal growth factor (EGF) and 25 μg/ml bovine pituitary extract (BPE). The cell line was tested from mycoplasma contamination and authenticated by exome sequencing and CNV.
1397 compounds from the NIH Clinical Collection (Evotec, San Francisco, Calif.), LOPAC Pfizer (Sigma Aldrich), the Developmental Therapeutics Program (DTP)-Approved Oncology library and the FDA-Approved Drug Library (Selleck Chemicals) were tested at a single concentration of 10 μM. The libraries were received as 10 mM compounds in dimethyl sulfoxide (DMSO). Plates which conflicted with our plate layout were reformatted. The compounds were first diluted 1:50 in serum free media, and then further diluted 1:20 into to 96 well plates containing 5000 cells in 190 μl of keratinocyte SFM supplemented with 2 mM L-glutamine, 0.2 ng/ml EGF and 25 μg/ml BPE. 0.1% DMSO was used as a negative control, and staurosporine (Sigma Aldrich) at a concentration of 1 μM was used as a positive death control in all plates. Each drug was tested for 72 h under 21% and 0.1% O2. The cells were fixed using 4% formaldehyde after 72 h, and stained with DAPI dilactate (Sigma Aldrich). To assess viability, stained nuclei were counted using Perkin Elmer Operetta High Content Microscope.
An experimental screen was designed for testing whether the clinical SL-network can discriminate between cytotoxic and non-cytotoxic drugs, when considering a wide range of oncology and non-oncology drugs. Transcriptomic profiles of an oral cancer cell line under normoxia and hypoxia were obtained. Based on these profiles the network predicted the cell line response to 139 oncology and 531 non-oncology drugs in each condition. […]

IC50 ([2]; normoxia) | Structure (SMILES) | median Combination Index (CI) [1] | inhibition at 10 µM ([2]; hypoxia (0.1% O2)) | inhibition at 10 µM ([2]; normoxia (21% O2))
 | O=C(CCCCCCC(=O)Nc1ccccc1)NO [VORINOSTAT, vorinostat] | 0.551 |  | 
 | COc1cc([C@@H]2c3cc4c(cc3[C@@H](O[C@@H]3O[C@@H]5CO[C@@H](C)O[C@H]5[C@H](O)[C@H]3O)[C@H]3COC(=O)[C@H]23)OCO4)cc(OC)c1O [Etoposide (VP16), etoposide] | 0.718 |  | 
5.8 µM | CN(C/C=C/C#CC(C)(C)C)Cc1cccc2ccccc12 [terbinafine] |  | 45.2% | 81.9%
